Assay results published in the supplement of paper PMC10307832.

Key:
Assay in all cases: relative viability (nuclei count vs DMSO), 5 days (fraction); higher = more cells survive
[1] = compound: NC(=O)[C@@H](CCC(F)(F)F)N(Cc1ccc(-c2ncon2)cc1F)S(=O)(=O)c1ccc(Cl)cc1 [Avagacestat] + CC(C)C[C@H](NC(=O)[C@H](Cc1ccccc1)NC(=O)c1cnccn1)B(O)O [Bortezomib] (partner 0.002 µM)
Method in brief: (§1)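 Five library-drug doses in √10 steps were combined with a fixed anchor-drug dose, or a single drug was given alone, by pin tool to lung cancer cell lines in 1536-well plates the day after seeding. Nuclei were stained and counted after 5 days. Relative viability is the nuclei count in treated wells over that in vehicle wells, taken as the median of duplicate plates.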

[2] = compound: NC(=O)[C@@H](CCC(F)(F)F)N(Cc1ccc(-c2ncon2)cc1F)S(=O)(=O)c1ccc(Cl)cc1 [Avagacestat] + CC(=O)Nc1cccc(-n2c(=O)n(C3CC3)c(=O)c3c(Nc4ccc(I)cc4F)n(C)c(=O)c(C)c32)c1 [Trametinib] (partner 0.02 µM)
Method in brief: as §1

[3] = compound: NC(=O)[C@@H](CCC(F)(F)F)N(Cc1ccc(-c2ncon2)cc1F)S(=O)(=O)c1ccc(Cl)cc1 [Avagacestat] + O=C(c1cc(Cc2n[nH]c(=O)c3ccccc23)ccc1F)N1CCN(C(=O)C2CC2)CC1 [Olaparib] (partner 8 µM)
Method in brief: as §1

[4] = compound: NC(=O)[C@@H](CCC(F)(F)F)N(Cc1ccc(-c2ncon2)cc1F)S(=O)(=O)c1ccc(Cl)cc1 [Avagacestat] + CS(=O)(=O)N1CCN(Cc2cc3nc(-c4cccc5[nH]ncc45)nc(N4CCOCC4)c3s2)CC1 [Pictilisib] (partner 1 µM)
Method in brief: as §1

Row | Cell Line | relative viability ([1]; first compound 0.08 µM) | relative viability ([1]; first compound 0.253 µM) | relative viability ([1]; first compound 0.8 µM) | relative viability ([1]; first compound 2.53 µM) | relative viability ([1]; first compound 8 µM) | relative viability ([2]; first compound 0.08 µM) | relative viability ([2]; first compound 0.253 µM) | relative viability ([2]; first compound 0.8 µM) | relative viability ([2]; first compound 2.53 µM) | relative viability ([2]; first compound 8 µM) | relative viability ([3]; first compound 0.08 µM) | relative viability ([3]; first compound 0.253 µM) | relative viability ([3]; first compound 0.8 µM) | relative viability ([3]; first compound 2.53 µM) | relative viability ([3]; first compound 8 µM) | relative viability ([4]; first compound 0.08 µM) | relative viability ([4]; first compound 0.253 µM) | relative viability ([4]; first compound 0.8 µM) | relative viability ([4]; first compound 2.53 µM) | relative viability ([4]; first compound 8 µM)
1 | NCI-H1755 | 0.996 | 1.11 | 1.07 | 0.967 | 0.937 | 0.837 | 0.884 | 0.8 | 0.777 | 0.729 | 0.894 | 0.957 | 0.901 | 0.914 | 0.884 | 0.487 | 0.445 | 0.445 | 0.428 | 0.367
2 | NCI-H1792 | 1.6 | 1.06 | 1.37 | 0.832 | 0.766 | 0.534 | 0.641 | 0.491 | 0.373 | 0.439 | 0.673 | 0.605 | 0.563 | 0.408 | 0.726 | 0.252 | 0.315 | 0.264 | 0.24 | 0.21
3 | NCI-H1915 | 1.02 | 1.11 | 1.13 | 1 | 0.951 | 0.29 | 0.305 | 0.254 | 0.3 | 0.252 | 0.264 | 0.28 | 0.257 | 0.249 | 0.227 | 0.962 | 1.05 | 0.949 | 1 | 0.93
4 | NCI-H1975 | 0.382 | 0.343 | 0.415 | 0.327 | 0.318 | 0.305 | 0.361 | 0.429 | 0.33 | 0.361 | 1.03 | 1.04 | 0.94 | 0.814 | 0.665 | 0.338 | 0.289 | 0.325 | 0.258 | 0.298
5 | NCI-H1993 | 1.37 | 1.35 | 1.47 | 1.27 | 1.3 | 0.576 | 0.316 | 0.629 | 0.504 | 0.577 | 1.28 | 1.1 | 1.17 | 1.17 | 0.836 | 0.675 | 0.664 | 0.856 | 0.817 | 0.696
6 | NCI-H2009 | 1.04 | 1.03 | 1.07 | 1.02 | 0.828 | 0.267 | 0.245 | 0.283 | 0.252 | 0.251 | 0.718 | 0.73 | 0.779 | 0.667 | 0.66 | 0.986 | 0.946 | 0.983 | 0.808 | 0.778
7 | NCI-H2023 | 1.13 | 1.1 | 1.08 | 0.886 | 0.808 | 0.681 | 0.59 | 0.569 | 0.522 | 0.449 | 0.751 | 0.52 | 0.479 | 0.493 | 0.475 | 0.249 | 0.225 | 0.255 | 0.184 | 0.185
